# Columns and labels:
# [1] = tested on: RPMIS cells; experiment: Combination XTT assay, Chou-Talalay, RPMIS; assay type: cell-based, human; parameters: key: CI <1 synergism, =1 additive, >1 antagonism (Chou-Talalay); settings: 48 h
# Description: (§1) Combinations of novel and/or conventional anti-MM agents may achieve higher clinical response rates than a single agent(s).
# (§2) CI value <1, =1, >1 indicates synergism, additive effect, and antagonism, respectively, (n=3 independent experiments). The CI values were calculated by the Chou-Talalay method based on the median-effect equation and the classic isobologram equation [22], using compusyn computer software.
# [2] = tested on: MM.1S cells; experiment: Combination XTT assay, Chou-Talalay, MM.1S; assay type: cell-based, human; parameters: key: CI <1 synergism, =1 additive, >1 antagonism (Chou-Talalay); settings: 48 h
# Description: as §1, §2
# [3] = tested on: affinity-purified CD138+ cells from bone marrow samples of MM patients; experiment: Cell viability XTT assay, primary patient MM cells; assay type: cell-based, human; settings: 2 MM patients, 48 h
# Description: (§3) MM cell lines were plated at a density of 2×10^4 cells per well in 96-wells and treated with different concentrations of STK405759. For patient samples, bone marrow aspirates from MM patients were collected, mononuclear cells were separated by Ficoll density gradient centrifugation and myeloma cells selected using CD138 microbeads (Miltenyi Biotec). Purified CD138^+ cells from patients were plated at a density of 2×10^4 cells per well and treated for 48 h with different concentrations of STK405759. Peripheral blood samples were processed by Ficoll density gradient centrifugation to isolate peripheral blood mononuclear cells (PBMCs). PBMCs were plated at 2×10^4 cells per well and exposed to different concentrations of STK405759 for 48 h. Cell viability was measured using XTT cell proliferation Kit (Biological Industries) according to manufacture instructions.
# [4] = tested on: HS-5 bone marrow stromal cells; experiment: CFSE/PI FACS viability in co-culture, stromal cells; assay type: cell-based, human; settings: 48 h
# Description: FIGS. 2A-D are graphs showing that STK405759 overcomes the growth stimulatory effect of BMSCs. IL-6 or IGF-1 on MM cell growth. FIG. 2A-B—RPMIS cells were stained with CFSE, co-cultured with HS-5 and exposed to STK405759 (70 nM) for 48 h. The cells were contrastained with PI to distinguish live from nonviable cells using FACS analysis. The values of the fraction of nonviable (CFSE^−PI^+) HS-5 cells within the entire population of HS-5 cells (CFSE^−) cultured alone or with RPMIS cells, and the fraction of (CFSE^+PI^+) RPMIS cells within the entire population of RPMIS cells (CFSE) cultured alone or with HS-5 cells are presented as a function of the STK405759 concentrations. FIGS. 2C-D—RPMIS cells were cultured for 48 hours at the indicated concentrations of STK405759 in the presence or absence of IL-6 (5 or 10 ng/ml) or IGF-1 (10 or 30 ng/ml). Data presented are from three independent experiments and presented as means±SE.
# Since BMSC trigger and maintain MM cell homing, proliferation, and drug resistance, the present inventors have assessed whether MM cell sensitivity to STK405759 is attenuated by co-culture with bone marrow stromal cells. In order to quantify viability of MM cells cultured alone or co-cultured with HS-5 bone marrow stromal cells. MM cells were stained with CFSE. […]
# [5] = tested on: RPMIS MM cells; experiment: Xenograft murine model; assay type: in vivo, SCID mice; settings: 0.5 mg/kg i.p.; not reached after follow-up of 60 days; control 28 days
# Description: RPMIS cells (7×10^6 mouse in 100 μl of PBS) were injected subcutaneously in SCID mice. Mice (n=10 per group) received STK405759 (0.5 mg/kg in 0.1 ml PBS) or control vehicle (0.1 ml PBS), by intraperitoneal (i.p.) administration once a day for 5 days. FIG. 6A—Tumor diameters were measured every 2-3 days with caliper, and tumor volumes were calculated using the formula of the volume of an ellipse: ½ (length×width^2). […] FIG. 6B—Kaplan-Meier analysis of overall survival confirmed that STK405759 increased survival compared with control mice. […] FIG. 6D—Induction of apoptosis and cell death in tumors excised from vehicle or STK405759 (0.5 mg/kg) treated animals are shown by TUNEL assay. Photomicrographs show apoptotic cells (brown) using light microscopy (×20 and ×40 magnification).
# Male SCID mice (6-8 week old) were maintained in accordance with Institutional Animal Care Use Committee guidelines. […]
# Mice were monitored every 2-3 d for changes in body weight and tumor burden. Tumor volumes were measured by a caliper every alternate day and calculated using the following formula: length×width^2×0.5. […] Following sacrifice, tumors were immediately collected and evaluated for induction of apoptosis and cell death by TdT-mediated dUTP nick end labeling (TUNEL) assay.
# [6] = Xenograft murine model, body weight and toxicity; assay type: in vivo; settings: 0.5 mg/kg i.p., during treatment
# Description: Mice were monitored every 2-3 d for changes in body weight and tumor burden. Tumor volumes were measured by a caliper every alternate day and calculated using the following formula: length×width^2×0.5. Mice were sacrificed in accordance with institutional guidelines when tumors reached 1.5 cm^3 or if the mice appeared moribund, to prevent unnecessary morbidity to the mice. Following sacrifice, tumors were immediately collected and evaluated for induction of apoptosis and cell death by TdT-mediated dUTP nick end labeling (TUNEL) assay.
# [7] = tested on: human multiple myeloma (MM) cell lines; experiment: Cell viability XTT assay, MM cell lines; assay type: cell-based; settings: each MM cell line
# Description: The following panel of human multiple myeloma (MM) cell lines was used: RPMI-S (ATCC® CCL-155), RPMI-LR5, RPMI-MR20, MM.1S (ATCC® CRL-2974). OPM1, OPM-2, U266 ATCC® TIB-196 and CAG. The human immortalized bone marrow stromal cell (BMSC) line HS-5 was obtained from ATCC® CRL-11882. MM cell lines were grown in RPMI and HS-5 in DMEM, supplemented with 10% fetal calf serum, 2 mM L-glutamine, 100 units/mL penicillin and 100 μg/mL streptomycin (Biological Industries, Beit Haemek, Israel), and incubated in a humidified atmosphere of 5% CO2 and 95% air at 37° C.
# as §3, with “PBMCs were plated at 2×10^4 cells per well and exposed to different concentrations of STK405759 for 48 h.” left out, “instructions. […]” for “instructions.”
# [8] = tested on: peripheral blood mononuclear cells (PBMCs); experiment: Cell viability XTT assay, PBMCs; assay type: cell-based, human; settings: PBMC from the same patients and from healthy donors, 48 h
# Description: as §3
compound,measurement,setting,value
"Nc1cccc2c1CN(C1CCC(=O)NC1=O)C2=O (stereo not shown) [LEN, lenalidomide]",Combination Index,[1]; STK405759 45 nM + LEN 5 μM,0.77 ± 0.09
same,Combination Index,[1]; STK405759 45 nM + LEN 25 μM,0.74 ± 0.05
same,Combination Index,[2]; STK405759 45 nM + LEN 5 μM,0.62 ± 0.09
same,Combination Index,[2]; STK405759 45 nM + LEN 25 μM,0.58 ± 0.09
"C[C@@H]1C[C@H]2[C@@H]3CCC4=CC(=O)C=C[C@]4(C)[C@@]3(F)[C@@H](O)C[C@]2(C)[C@@]1(O)C(=O)CO [DEX, dexamethasone]",Combination Index,[1]; STK405759 45 nM + DEX 1 nM,0.76 ± 0.06
same,Combination Index,[1]; STK405759 45 nM + DEX 5 nM,0.84 ± 0.03
same,Combination Index,[2]; STK405759 45 nM + DEX 1 nM,0.76 ± 0.15
same,Combination Index,[2]; STK405759 45 nM + DEX 5 nM,0.63 ± 0.09
CCCCCOC(=O)c1[nH]c2c(c1C)C(=O)CC(c1ccco1)C2 (stereo not shown) [STK405759],cytotoxic response of primary MM cells,[3],dose-dependent cytotoxic response
same,viability of HS-5 stromal cells,[4],unaffected
same,median overall survival,[5],> 60 days
same,changes in weight or other signs of potential toxicity,[6],No significant changes
same,IC50,[7],< 0.044 µM
same,cytotoxic effect on PBMC,[8],non responsive to the cytotoxic effect
"COc1cccc2c1C(=O)c1c(O)c3c(c(O)c1C2=O)C[C@@](O)(C(=O)CO)C[C@@H]3O[C@H]1C[C@H](N)[C@H](O)[C@H](C)O1 [DOXO, doxorubicin]",Combination Index,[1]; STK405759 45 nM + DOXO 10 nM,1.44 ± 0.01
same,Combination Index,[1]; STK405759 45 nM + DOXO 30 nM,1.63 ± 0.10
same,Combination Index,[2]; STK405759 45 nM + DOXO 10 nM,1.30 ± 0.06
same,Combination Index,[2]; STK405759 45 nM + DOXO 30 nM,1.54 ± 0.08
"CC(C)C[C@H](NC(=O)[C@H](Cc1ccccc1)NC(=O)c1cnccn1)B(O)O [BTZ, bortezomib]",Combination Index,[1]; STK405759 45 nM + BTZ 1 nM,0.88 ± 0.02
same,Combination Index,[1]; STK405759 45 nM + BTZ 5 nM,0.78 ± 0.08
same,Combination Index,[2]; STK405759 45 nM + BTZ 1 nM,0.62 ± 0.14
same,Combination Index,[2]; STK405759 45 nM + BTZ 5 nM,0.58 ± 0.02

# Reference: US9782387B2, “Compositions and methods for treating hematological malignancies” (Tel HaShomer Medical Research Infrastructure and Services …, priority 2013, dated 2017)
